Experimental data from patent US8664220B2, “Polycyclic compounds as lysophosphatidic acid receptor antagonists” (Amira Pharmaceuticals, Inc., priority 2009, dated 2014).

The compounds below were run against T1, human LPA1 (Homo sapiens, UniProt Q92633) (assay: LPA1 calcium flux assay). Settings: human LPA1 expressing CHO cells, stimulated with 10 nM LPA; read-out: HLPA1 Ca Flux IC50.
T1 construct: the full-length cDNA for human LPA1 was obtained by PCR of the reverse transcription reaction; expressed in transfected cells
T1 sequence (Q92633 whole entry): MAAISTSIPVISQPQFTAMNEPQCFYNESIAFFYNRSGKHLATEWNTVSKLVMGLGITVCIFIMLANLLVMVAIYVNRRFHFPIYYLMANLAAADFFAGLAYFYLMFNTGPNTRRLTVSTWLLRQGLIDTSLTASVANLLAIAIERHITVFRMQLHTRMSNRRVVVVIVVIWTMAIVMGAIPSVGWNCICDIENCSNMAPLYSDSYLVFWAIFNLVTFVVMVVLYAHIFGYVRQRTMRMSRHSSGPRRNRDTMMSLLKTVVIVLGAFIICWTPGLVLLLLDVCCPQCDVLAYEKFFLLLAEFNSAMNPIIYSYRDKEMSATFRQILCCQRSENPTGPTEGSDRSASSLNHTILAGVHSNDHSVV
Type: cell-based
In short: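 CHO cells stably expressing human LPA1, serum-starved overnight and loaded with Calcium 4 dye in HBSS/20 mM Hepes/0.3% fatty-acid-free HSA, 1 h at 37 °C. Compounds pre-incubated 30 min at room temperature, then 10 nM LPA added; intracellular Ca2+ flux measured and IC50 from titration curves.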

SMILES | IC50 [µM]
Cc1noc(-c2ccc(-c3ccc(C4(C(=O)O)CC4)cc3)cc2)c1Nc1cccc(-c2cccc(C#N)c2)n1 [Compound 1-145, 1-(4′-{4-[6-(3-Cyano-phenyl)-pyridin-2-ylamino]-3-methyl-isoxazol-5-yl}-biphenyl-4-yl)-cyclopropanecarboxylic acid] | < 0.3
Cc1noc(-c2ccc(-c3ccc(C4(C(=O)O)CC4)cc3)cc2)c1Nc1cncc(-c2ccc(C(F)(F)F)cc2)c1 [Compound 1-119, 1-(4′-{3-Methyl-4-[5-(4-trifluoromethyl-phenyl)-pyridin-3-ylamino]-isoxazol-5-yl}-biphenyl-4-yl)-cyclopropanecarboxylic acid] | < 0.3
Cc1noc(-c2ccc(-c3ccc(C4(C(=O)O)CC4)cc3)cc2)c1CN1C(=O)OC[C@@H]1c1ccccc1 [Compound 1-14, 1-{4′-[3-Methyl-4-((S)-2-oxo-4-phenyl-oxazolidin-3-ylmethyl)-isoxazol-5-yl]-biphenyl-4-yl}-cyclopropanecarboxylic acid] | 1 to 50
Cc1noc(-c2ccc(-c3ccc(C4(CC(=O)O)CC4)cc3)cc2)c1NC(C)c1cc(-c2ccccc2)no1 (stereo not drawn) [Compound 1-42, [1-(4′-{3-Methyl-4-[1-(3-phenyl-isoxazol-5-yl)-ethylamino]-isoxazol-5-yl}-biphenyl-4-yl)-cyclopropyl]-acetic acid] | < 0.3
Cc1noc(-c2ccc(-c3ccc(C4(C(=O)O)CC4)cc3)cc2)c1Nc1cccc(C(=O)NC2CC2)n1 [Compound 1-137, 1-{4′-[4-(6-Cyclopropylcarbamoyl-pyridin-2-ylamino)-3-methyl-isoxazol-5-yl]-biphenyl-4-yl}-cyclopropanecarboxylic acid] | < 0.3
Cc1noc(-c2ccc(-c3ccc(CCC(=O)O)cc3)cc2)c1C(O)c1cn(Cc2ccccc2)nn1 (stereo not drawn) [Compound 1-49, 3-(4′-{4-[(1-Benzyl-1H-[1,2,3]triazol-4-yl)-hydroxy-methyl]-3-methyl-isoxazol-5-yl}-biphenyl-4-yl)-propionic acid] | < 0.3

Second part, the compound after the results:

IC50 [µM] | SMILES
< 0.3 | Cc1noc(-c2ccc(-c3ccc(C4(C(=O)O)CC4)cc3)cc2)c1Nc1nccc(-c2ccccc2)n1 [Compound 1-115, 1-{4′-[3-Methyl-4-(4-phenyl-pyrimidin-2-ylamino)-isoxazol-5-yl]-biphenyl-4-yl}-cyclopropanecarboxylic acid]
< 0.3 | Cc1noc(-c2ccc(-c3ccc(C4(C(=O)NS(C)(=O)=O)CC4)cc3)cc2)c1Nc1cccc(-c2ccccc2)n1 [Compound 3-6, N-(1-{4′-[3-Methyl-4-(6-phenyl-pyridin-2-ylamino)-isoxazol-5-yl]-biphenyl-4-yl}-cyclopropanecarbonyl)-methanesulfonamide]
< 0.3 | Cc1noc(-c2ccc(-c3ccc(C4(C(=O)O)CC4)cc3)cc2)c1NCc1cnc(-c2ccccc2)s1 [Compound 1-100, 1-(4′-{3-Methyl-4-[(2-phenyl-thiazol-5-ylmethyl)-amino]-isoxazol-5-yl}-biphenyl-4-yl)-cyclopropanecarboxylic acid]
< 0.3 | Cc1noc(-c2ccc(-c3ccc(C4(C(=O)O)CC4)cc3)cc2)c1C1CN(Cc2ccccc2)C(=O)O1 (stereo not drawn) [Compound 1-28, 1-{4′-[4-(3-Benzyl-2-oxo-oxazolidin-5-yl)-3-methyl-isoxazol-5-yl]-biphenyl-4-yl}-cyclopropanecarboxylic acid]
< 0.3 | Cc1noc(-c2ccc(-c3ccc(C4(C(=O)O)CC4)cc3)cc2)c1C(O)c1cn(Cc2ccc(Cl)c(Cl)c2)nn1 (stereo not drawn) [Compound 1-64, 1-[4′-(4-{[1-(3,4-Dichloro-benzyl)-1H-[1,2,3]triazol-4-yl]-hydroxy-methyl}-3-methyl-isoxazol-5-yl)-biphenyl-4-yl]-cyclopropanecarboxylic acid]
< 0.3 | Cc1noc(-c2ccc(-c3ccc(CCC(=O)O)cc3)cc2)c1Nc1cccc(-c2ccccc2)n1 [Compound 1-132, 3-{4′-[3-Methyl-4-(6-phenyl-pyridin-2-ylamino)-isoxazol-5-yl]-biphenyl-4-yl}-propionic acid]
